Laboratory results reported in PMC12362764, “Novel Cyano‐Artemisinin Dimer ZQJ29 Targets PARP1 to Induce Ferroptosis in Pancreatic Cancer Treatment” (Advanced Science, 2025).

How the values were obtained:
A549 = experiment: CCK-8 cytotoxicity assay, A549; format: cell-based; settings: Homo sapiens, A549, 72 h
Description: (§1) Cell viability was evaluated using the Cell Counting Kit‐8 (Beyotime, Shanghai, China) assay. Cells were seeded in 96‐well plates at a density of 2×10^3 cells to allow for attachment. After treatment with ZQJ29 (0.001, 0.01, 0.1, 10, and 25 µM) for 24, 48, and 72 h, 10 µL of CCK‐8 solution was added to each well and incubated for 1 h. The optical density values were then measured at 450 nm using a multifunctional enzyme‐linked immunosorbent assay reader (Tecan, Spark, Switzerland).

[1] = Pharmacokinetic study after intragastric administration; format: in vivo, Sprague-Dawley (SD) rats; settings: rat, 50 mg/kg i.g.
Description: Male Sprague‐Dawley (SD) rats (200 ± 20 g) were purchased from Beijing Vital River Laboratory Animal Technology Co., Ltd. (Beijing, China). After a one‐week acclimatization period, the rats were injected intragastrically with ZQJ29 (50 mg kg^−1). Blood samples were collected from the jugular veins after the injection of ZQJ29 (at 5, 10, 20, 40, 60, 120, 240, 360, 720, and 1440 min). The whole blood was centrifuged at 4000 × g for 10 min at 4 °C. Plasma was extracted with MeOH by vortexing for 10 min. After centrifugation for 12 min at 12 000 × g at 4 °C, the supernatant was analyzed using an HPLC‐MS/MS system. The concentration of ZQJ29 was quantitatively measured by the external standard method. Pharmacokinetic parameters were calculated using Drug and Statistic (DAS, version 2.0) software based on the compartmental method.

PANC-1 and KP4 cells [2] = experiment: Mitochondrial membrane potential assay (JC-1); format: cell-based; settings: 24 h
Description: Mitochondrial membrane potential assay kits with JC‐1 (Beyotime, Shanghai, China) were used to measure the alteration of mitochondrial membrane potential (ΔΨm). After being treated with different concentrations of ZQJ29 (0, 1, 2.5, and 5 µM) for 24 h, cells were treated with the positive control reagent CCCP (10 µM) for 30 min at 37 °C. The cells were rinsed once with PBS, and the JC‐1 staining working solution was added for 30 min at 37 °C in the dark. Afterward, the cells were washed twice with 1 × JC‐1 staining buffer. Fluorescent images of the JC‐1‐stained cells were captured with a fluorescence microscope Cytation5 (BioTek, America).

PARP1 = PARP1 (Homo sapiens, UniProt P09874); experiment: DARTS; format: binding; set-up: Total cellular proteins from PANC‐1 and KP4 were extracted using M‐PER lysis buffer; endogenous in cells; host or cells: PANC-1 and KP4 pancreatic cancer cells; settings: enzyme-lysate ratio 1:3000, higher ZQJ29 concentrations
Sequence of PARP1 (P09874 whole entry): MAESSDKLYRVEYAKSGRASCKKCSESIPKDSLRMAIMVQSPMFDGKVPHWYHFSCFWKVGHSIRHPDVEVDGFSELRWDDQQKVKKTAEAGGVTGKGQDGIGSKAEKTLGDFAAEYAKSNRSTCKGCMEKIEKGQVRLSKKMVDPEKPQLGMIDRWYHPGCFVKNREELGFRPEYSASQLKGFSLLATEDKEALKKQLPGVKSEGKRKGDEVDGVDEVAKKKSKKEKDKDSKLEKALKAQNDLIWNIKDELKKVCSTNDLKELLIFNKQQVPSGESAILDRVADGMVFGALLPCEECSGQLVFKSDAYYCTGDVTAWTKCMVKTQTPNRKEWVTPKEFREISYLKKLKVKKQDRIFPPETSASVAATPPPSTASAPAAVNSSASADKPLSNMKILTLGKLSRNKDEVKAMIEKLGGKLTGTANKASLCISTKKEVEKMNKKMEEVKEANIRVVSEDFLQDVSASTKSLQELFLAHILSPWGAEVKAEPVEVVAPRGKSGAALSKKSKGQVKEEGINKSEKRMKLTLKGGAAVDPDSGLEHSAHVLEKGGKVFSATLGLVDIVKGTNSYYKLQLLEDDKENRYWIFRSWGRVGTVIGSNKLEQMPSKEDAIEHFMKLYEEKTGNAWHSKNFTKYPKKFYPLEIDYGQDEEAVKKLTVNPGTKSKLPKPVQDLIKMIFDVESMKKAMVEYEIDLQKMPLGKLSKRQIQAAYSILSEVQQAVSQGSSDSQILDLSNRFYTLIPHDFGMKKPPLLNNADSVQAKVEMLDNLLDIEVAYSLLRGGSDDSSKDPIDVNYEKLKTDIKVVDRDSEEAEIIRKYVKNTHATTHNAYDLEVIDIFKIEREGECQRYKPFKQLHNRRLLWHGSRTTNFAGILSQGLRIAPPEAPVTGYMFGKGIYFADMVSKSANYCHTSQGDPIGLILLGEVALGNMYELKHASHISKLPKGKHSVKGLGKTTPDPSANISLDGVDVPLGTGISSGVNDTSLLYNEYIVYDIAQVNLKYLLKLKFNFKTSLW
Description: Total cellular proteins from PANC‐1 and KP4 were extracted using M‐PER lysis buffer (Thermo Fisher, USA). Aliquots of 50 µg of protein were taken from the lysate and placed into each 1.5 mL tube. Different concentrations of ZQJ29 were added to some tubes, while control tubes received an equal amount of DMSO. The mixtures were incubated at room temperature for 1 h. After incubation, Pronase was added to the mixture of cellular proteins at a ratio of Pronase: protein = 1: 3000 for digestion at room temperature for 15 min. Following digestion, 5 × loading buffer was added, and the samples were heated at 100 °C for 10 min before being used for western blot analysis.

THLE-2 = experiment: CCK-8 cytotoxicity assay, THLE-2 (normal cell line); format: cell-based; settings: Homo sapiens, 72 h
Description: as §1

H1975 = experiment: CCK-8 cytotoxicity assay, H1975; format: cell-based; settings: Homo sapiens, NCI-H1975, 72 h
Description: as §1

PANC-1 and KP4 cells [3] = experiment: CCK-8 viability after PARP1 siRNA knockdown; format: cell-based; settings: PARP1-siRNA transfection, ZQJ29 1 µM, 24 h
Description: as §1
A short interfering RNA (siRNA) targeting human PARP1 was designed and synthesized by GenePharma (Shanghai, China). The sequences of the siRNAs are detailed in Table S5 (Supporting Information). PANC‐1 and KP4 Cells were cultured in six‐well plates until they reached 70% confluence. The cells were then transfected with 50 nM siRNA‐PARP1 or a negative control with Lipofectamine 2000 (Thermo Fisher, USA) for 24 h, according to the manufacturer's instructions.

JHH7 = experiment: CCK-8 cytotoxicity assay, JHH7; format: cell-based; settings: JHH7, 72 h
Description: as §1

KP4 = experiment: CCK-8 cytotoxicity assay, KP4; format: cell-based
Description: as §1

HEK-293T = experiment: CCK-8 cytotoxicity assay, HEK-293T (normal cell line); format: cell-based; settings: Homo sapiens, 72 h
Description: as §1

[4] = Toxicity in tumor-bearing mice (body weight, ALT/AST, H&E); format: in vivo, BALB/c nude mice
Description: Five‐week‐old male BALB/c nude mice were purchased from Shanghai Jihui Laboratory Animal Breeding Co., Ltd. (Shanghai, China). After a one‐week acclimatization period, PANC‐1 cells were subcutaneously injected at a dose of 5 × 10^6 cells per mouse. Four weeks post‐injection, once tumor volumes reached 50–100 mm^3, the tumor‐bearing animals were randomly divided into four groups, each consisting of six animals. ZQJ29 was prepared in a 0.5% CMC‐Na solution, while OXA was dissolved in saline. The control group was treated with oral gavage of 0.5% CMC‐Na, while the positive control group was administered intraperitoneal injections of OXA at a dosage of 3 mg kg^−1 every three days. The test groups were treated with oral gavage of ZQJ29 at dosages of 25 and 50 mg kg day^−1. Mouse weights were monitored every other day. Tumor measurements were taken every other day using calipers, and the tumor volume was calculated using the following formula: ½ × length × width^2. Drug administered continued for three weeks. After blood collection at the end of the administration, the mice were humanely euthanized, and their vital organs were promptly harvested, preserved, and embedded in paraffin for H&E staining.
Following the experiments, organs from mice, including hearts, livers, spleens, lungs, and kidneys were swiftly collected and fixed in 4% paraformaldehyde overnight. The tissues were then embedded in paraffin. Afterward, 4‐µm‐thick sections were produced and stained using H&E. Images of these sections were captured with a Leica DM4000b microscope (Germany).
Blood samples were collected and placed in a biochemical incubator for 30 min, followed by centrifugation at 6000 rpm for 10 min. The supernatant was used to measure the following indicators: ALT and AST (both from Jiancheng, Nanjing, China).

HPDE6-C7 = experiment: CCK-8 cytotoxicity assay, HPDE6-C7 (normal cell line); format: cell-based; settings: HPDE6c7, 72 h
Description: as §1

[5] = male, Sprague-Dawley, plasma, po, n = 6

CC1CCC2C(C)C(OCCN(C#N)CCOC3OC4OC5(C)CCC6C(C)CCC(C3C)C46OO5)OC3OC4(C)CCC1C32OO4 (stereo not drawn) [ZQJ29]
IC50 (A549): > 10000 nM
AUC(0-t) [1, 5]: 40 ± 16.3 ng·h/mL
Cmax [1, 5]: 11.8 ± 6.05 ng/mL
MRT last ([1]; male, Sprague-Dawley, plasma, po, n = 6, read-out: MRT0-t): 2.74 ± 0.46 h
MRT inf ([1]; male, Sprague-Dawley, plasma, po, read-out: average residence time (MRT0-inf)): 2.74 h
half-life ([1]; male, Sprague-Dawley, plasma, po, 50 mg/kg, n = 6): 1.58 ± 0.26 h
t1/2 ([1]; n = 6, 50 mg/kg): 1.6 h
mitochondrial membrane potential (MMP), JC-1 (PANC-1 and KP4 cells [2]): decrease in MMP
PARP1 accumulation after pronase digestion (PARP1): increased
IC50 (THLE-2): > 10000 nM
IC50 (H1975): 2190 ± 113 nM
proliferation inhibition by ZQJ29 upon PARP1 knockdown (PANC-1 and KP4 cells [3]): markedly reversed
IC50 (JHH7): 791 ± 305 nM
IC50 (KP4; Homo sapiens, KP-4, KP4, as printed in the text): 885 ± 106 nM
enhanced cytotoxic effect compared to OXA and DHA (KP4; KP4 cells): 10 fold
potency of antitumor over DHA (KP4; discussion, cell line not stated): 10 fold
IC50 (HEK-293T): > 10000 nM
post-experiment levels of ALT and AST ([4]; ZQJ29 50 mg/kg, OXA 3 mg/kg i.p.): no significant alterations
major organ damage (H&E staining) ([4]; hearts, livers, spleens, lungs, kidneys): no significant major organ damage
body weight during the whole treatment period ([4]; tumor-bearing nude mice, three weeks): remained stable
IC50 (HPDE6-C7): > 10000 nM
